This is an account of results in patent US8431597B2, “Benzimidazole derivatives” (Pfizer Inc., priority 2007, dated 2013).

Where a name gives a salt, the structure may show the parent alone.

The target in the experiment is T1, Smoothened (SMO) (Mus musculus, UniProt P56726).
T1 construct: C3H10T1/2 cells (ATCC #CCL-226) were split and seeded; endogenous in cells; host or cells: C3H10T1/2 (ATCC #CCL-226)
T1 sequence (P56726 33-793): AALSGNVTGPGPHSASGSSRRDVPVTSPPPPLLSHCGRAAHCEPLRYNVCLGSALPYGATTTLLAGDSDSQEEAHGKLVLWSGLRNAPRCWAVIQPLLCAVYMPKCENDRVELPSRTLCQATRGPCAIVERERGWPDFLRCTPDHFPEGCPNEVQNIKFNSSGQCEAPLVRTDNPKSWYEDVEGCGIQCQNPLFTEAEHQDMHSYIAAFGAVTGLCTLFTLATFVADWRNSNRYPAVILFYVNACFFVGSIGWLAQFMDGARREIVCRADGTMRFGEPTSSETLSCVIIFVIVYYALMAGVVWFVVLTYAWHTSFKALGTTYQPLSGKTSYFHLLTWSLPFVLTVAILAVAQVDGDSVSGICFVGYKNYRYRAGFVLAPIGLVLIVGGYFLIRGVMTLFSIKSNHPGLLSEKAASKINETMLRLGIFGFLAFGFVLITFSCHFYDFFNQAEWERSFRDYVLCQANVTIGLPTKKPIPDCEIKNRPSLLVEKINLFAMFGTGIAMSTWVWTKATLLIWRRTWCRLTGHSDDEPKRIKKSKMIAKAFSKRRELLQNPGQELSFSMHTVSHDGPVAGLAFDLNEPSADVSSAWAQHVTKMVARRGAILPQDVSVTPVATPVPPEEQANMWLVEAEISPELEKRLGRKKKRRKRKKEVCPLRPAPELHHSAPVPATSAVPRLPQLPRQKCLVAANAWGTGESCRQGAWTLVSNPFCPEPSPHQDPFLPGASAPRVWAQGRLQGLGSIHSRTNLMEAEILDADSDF
Kind of experiment: Smoothened (SMO)/Sonic Hedgehog (SHh) Transient Transcriptional Activation Assay (Gli-luciferase reporter in C3H10T1/2 cells). Type of experiment: cell-based, murine. To be noted: C3H 10T1/2, 2 μM compound; transfected C3H10T1/2 cells, recombinant human SHh 250 ng/mL, 20 hours, luciferase readout; read-out: SMO CELL % INHIBITION @ 2 μM. In short, it runs like this:
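C3H10T1/2 cells transiently transfected with a murine Gli-responsive firefly luciferase reporter plus pEGFP were serum-starved 20 h in 0.5% calf serum. Compound (2 μM to 2 nM final) was added with recombinant human SHh at 250 ng/mL final for 20 h at 37 °C. Read-out was Dual-Glo luminescence.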
(A reporter such as luciferase makes a cellular process visible.)
In general, inhibition refers to the drop in the measured response relative to a control, in per cent. As for `COc1ccc2nc([C@H]3C[C@H](NC(=O)c4ccc5c(c4)OCCO5)CCN3C)[nH]c2c1` [Example 38, N-[(2R,4R)-2-(6-methoxy-1H-benzimidazol-2-yl)-1-methylpiperidin-4-yl]-2,3-dihydro-1,4-benzodioxine-6-carboxamide hydrochloride], the inhibition at 2 µM came to 106%.
As for `COc1ccc(C(=O)N[C@@H]2CCN(C)[C@@H](c3nc4ccccc4[nH]3)C2)cc1F` [Example 117, N-[(2R,4R)-2-(1H-benzimidazol-2-yl)-1-methylpiperidin-4-yl]-3-fluoro-4-methoxybenzamide trifluoroacetate], the figure is 65.4%; as for `CN1C[C@@H](NC(=O)Nc2ccc(Cl)c(C(F)(F)F)c2)C[C@H]1c1nc2ccc(F)cc2[nH]1` [Example 58, 1-[4-chloro-3-(trifluoromethyl)phenyl]-3-[(3S,5S)-5-(6-fluoro-1H-benzimidazol-2-yl)-1-methylpyrrolidin-3-yl]urea], 104%; as for `CN1CC[C@@H](NC(=O)c2cc(-c3ccncc3)n[nH]2)C[C@@H]1c1nc2ccccc2[nH]1` [Example 74, N-[(2R,4R)-2-(1H-benzimidazol-2-yl)-1-methylpiperidin-4-yl]-3-pyridin-4-yl-1H-pyrazole-5-carboxamide hydrochloride], 101%.
As for `CN1CC[C@@H](NC(=O)Cc2ccc(Cl)s2)C[C@@H]1c1nc2ccccc2[nH]1` [Example 78, N-[(2R,4R)-2-(1H-benzimidazol-2-yl)-1-methylpiperidin-4-yl]-2-(5-chloro-2-thienyl)acetamide hydrochloride], the figure is 99.3%.
As for `Cc1cc2nc([C@H]3C[C@H](NC(=O)Nc4ccc(C(F)(F)F)nc4)CCN3C)[nH]c2cc1C` [Example 77, 1-[(2R,4R)-2-(5,6-dimethyl-1H-benzimidazol-2-yl)-1-methylpiperidin-4-yl]-3-[6-(trifluoromethyl)pyridin-3-yl]urea hydrochloride], the figure is 100%; as for `CN1CC[C@@H](NC(=O)Nc2ccccc2)C[C@@H]1c1nc2ccccc2[nH]1` [Example 75, 1-[(2R,4R)-2-(1H-benzimidazol-2-yl)-1-methylpiperidin-4-yl]-3-phenylurea hydrochloride], 100%.
In the case of `CN1CC[C@@H](NC(=O)c2ccc3c(c2F)OCCO3)C[C@@H]1c1nc2ccccc2[nH]1` [Example 141, N-[(2R,4R)-2-(1H-benzimidazol-2-yl)-1-methylpiperidin-4-yl]-5-fluoro-2,3-dihydro-1,4-benzodioxine-6-carboxamide trifluoroacetate], the inhibition at 2 µM stood at 85.3%.
With `CC(C)N1C[C@H](NC(=O)Nc2ccc(Cl)c(C(F)(F)F)c2)C[C@H]1c1nc2ccccc2[nH]1` [Example 84, 1-[(3R,5S)-5-(1H-benzimidazol-2-yl)-1-isopropyl-pyrrolidin-3-yl]-3-[4-chloro-3-(trifluoromethyl)phenyl]urea], the inhibition at 2 µM was found to be 95.4%.
As for `CN1CC[C@H](NC(=O)c2ccc3c(c2)OCCO3)C[C@@H]1c1nc2ccccc2[nH]1` [Example 94, N-[(2R,4S)-2-(1H-benzimidazol-2-yl)-1-methylpiperidin-4-yl]-2,3-dihydro-1,4-benzodioxine-6-carboxamide hydrochloride], the figure is 79.7%; as for `CN1CC[C@@H](NC(=O)Cc2cccc(F)c2)C[C@@H]1c1nc2ccccc2[nH]1` [Example 123, N-[(2R,4R)-2-(1H-benzimidazol-2-yl)-1-methylpiperidin-4-yl]-2-(3-fluorophenyl)acetamide trifluoroacetate], 52.2%.
Consider `O=C(N[C@@H]1CCN[C@@H](c2nc3ccccc3[nH]2)C1)c1ccc2c(c1)OCCO2` [Example 99, N-[(2R,4R)-2-(1H-benzimidazol-2-yl)piperidin-4-yl]-2,3-dihydro-1,4-benzodioxine-6-carboxamide trifluoroacetate], for which the inhibition at 2 µM was 72%.
The same measure for `Cc1cccc2cc(C(=O)N[C@@H]3CCN(C)[C@@H](c4nc5ccccc5[nH]4)C3)nn12` [Example 118, N-[(2R,4R)-2-(1H-benzimidazol-2-yl)-1-methylpiperidin-4-yl]-7-methylpyrazolo[1,5-a]pyridine-2-carboxamide trifluoroacetate]: 65.1%; for `Cc1cc2nc([C@H]3C[C@H](NC(=O)Nc4ccc(C#N)cc4)CCN3C)[nH]c2cc1C` [Example 52, 1-(4-cyanophenyl)-3-[(2R,4R)-2-(5,6-dimethyl-1H-benzimidazol-2-yl)-1-methylpiperidin-4-yl]urea hydrochloride]: 105%.
As for `CN1CC[C@@H](NC(=O)c2ccc3c(c2)CCCO3)C[C@@H]1c1nc2ccccc2[nH]1` [Example 33, N-[(2R,4R)-2-(1H-benzimidazol-2-yl)-1-methylpiperidin-4-yl]chromane-6-carboxamide hydrochloride], the figure is 114%; as for `O=C(N[C@@H]1CCN(CC2CC2)[C@@H](c2nc3ccccc3[nH]2)C1)c1ccc2c(c1)OCCO2` [Example 89, N-[(2R,4R)-2-(1H-benzimidazol-2-yl)-1-(cyclopropyl-methyl)piperidin-4-yl]-2,3-dihydro-1,4-benzodioxine-6-carboxamide hydrochloride], 88.2%.
The same measure for `CN1CC[C@@H](NC(=O)Nc2cc(F)cc3c2OCOC3)C[C@@H]1c1nc2ccccc2[nH]1` [Example 41, 1-[(2R,4R)-2-(1H-benzimidazol-2-yl)-1-methylpiperidin-4-yl]-3-(6-fluoro-4H-1,3-benzodioxin-8-yl)urea hydrochloride]: 106%; for `CN1CC[C@@H](NC(=O)c2ccc3c(c2)OCCO3)C[C@@H]1c1nc2ccc(C#N)cc2[nH]1` [Example 63, N-[(2R,4R)-2-(6-cyano-1H-benzimidazol-2-yl)-1-methylpiperidin-4-yl]-2,3-dihydro-1,4-benzodioxine-6-carboxamide hydrochloride]: 104%; for `CN1CC[C@@H](NC(=O)Nc2cc(Cl)cc(Cl)c2)C[C@@H]1c1nc2ccccc2[nH]1` [Example 28, 1-[(2R,4R)-2-(1H-benzimidazol-2-yl)-1-methylpiperidin-4-yl]-3-(3,5-dichlorophenyl)urea hydrochloride]: 108%.
As to `COc1ccc(NC(=O)N[C@@H]2CCN(C)[C@@H](c3nc4cc(C)c(C)cc4[nH]3)C2)cn1` [Example 138, 1-[(2R,4R)-2-(5,6-dimethyl-1H-benzimidazol-2-yl)-1-methylpiperidin-4-yl]-3-(6-methoxypyridin-3-yl)urea hydrochloride], the inhibition at 2 µM is 108%.
As for `CN1CC[C@@H](NC(=O)c2ccc3c(c2F)OCCO3)C[C@@H]1c1nc2cc(Cl)ccc2[nH]1` [Example 142, N-[(2R,4R)-2-(5-chloro-1H-benzimidazol-2-yl)-1-methylpiperidin-4-yl]-5-fluoro-2,3-dihydro-1,4-benzodioxine-6-carboxamide triflouroacetate], the figure is 101%; as for `CN1CC[C@@H](NC(=O)Cc2ccccc2)C[C@@H]1c1nc2ccccc2[nH]1` [Example 110, N-[(2R,4R)-2-(1H-benzimidazol-2-yl)-1-methylpiperidin-4-yl]-2-phenylacetamide trifluoroacetate], 83.2%.
As for `CN1CC[C@@H](NC(=O)Nc2ccc3c(c2)OCCO3)C[C@@H]1c1nc2ccccc2[nH]1` [Example 67, 1-[(2R,4R)-2-(1H-benzimidazol-2-yl)-1-methylpiperidin-4-yl]-3-(2,3-dihydro-1,4-benzodioxin-6-yl)urea hydrochloride], the figure is 103%; as for `Cc1ccc2[nH]c([C@H]3C[C@H](NC(=O)Nc4ccc(C)nc4)CCN3C)nc2c1` [Example 130, 1-[(2R,4R)-1-methyl-2-(5-methyl-1H-benzimidazol-2-yl)piperidin-4-yl]-3-(6-methylpyridin-3-yl)urea hydrochloride], 106%; as for `CC(C)N1C[C@@H](NC(=O)Nc2ccc(Cl)c(C(F)(F)F)c2)C[C@H]1c1nc2ccccc2[nH]1` [Example 93, 1-[(3S,5S)-5-(1H-benzimidazol-2-yl)-1-isopropyl-pyrrolidin-3-yl]-3-[4-chloro-3-(trifluoromethyl)phenyl]urea], 85.2%.
Take `CN1CC[C@@H](NC(=O)Nc2ccc(C(F)(F)F)cn2)C[C@@H]1c1nc2ccccc2[nH]1` [Example 101, 1-[(2R,4R)-2-(1H-benzimidazol-2-yl)-1-methylpiperidin-4-yl]-3-[5-(trifluoromethyl)pyridin-2-yl]urea hydrochloride]: the inhibition at 2 µM came out at 62.5%.
In the case of `CN1CC[C@@H](NC(=O)c2ccc(N=[N+]=[N-])cc2)C[C@@H]1c1nc2ccccc2[nH]1` [Example 72, 4-azido-N-[(2R,4R)-2-(1H-benzimidazol-2-yl)-1-methylpiperidin-4-yl]benzamide], the inhibition at 2 µM came out at 101%.
`CN1CC[C@@H](NC(=O)c2ccc(-c3cnco3)cc2)C[C@@H]1c1nc2ccccc2[nH]1` [Example 92, N-[(2R,4R)-2-(1H-benzimidazol-2-yl)-1-methylpiperidin-4-yl]-4-(1,3-oxazol-5-yl)benzamide hydrochloride]: the inhibition at 2 µM was determined as 86.4%.
The same measure for `CN1CC[C@@H](NC(=O)[C@@H]2COc3ccccc3O2)C[C@@H]1c1nc2ccccc2[nH]1` [Example 105, (2S)-N-[(2R,4R)-2-(1H-benzimidazol-2-yl)-1-methylpiperidin-4-yl]-2,3-dihydro-1,4-benzodioxine-2-carboxamide trifluoroacetate]: 97.8%; for `CSc1ccccc1C(=O)N[C@@H]1CCN(C)[C@@H](c2nc3ccccc3[nH]2)C1` [Example 107, N-[(2R,4R)-2-(1H-benzimidazol-2-yl)-1-methylpiperidin-4-yl]-2-(methylthio)benzamide trifluoroacetate]: 88.3%.
